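GI50: concentration for 50% inhibition of growth. TGI: total growth inhibition.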
Key:
Assay in all cases: inhibition of tumour cell growth, NCI panel, 384-well format
A498 renal = tested on: A498 renal
SF-539 CNS = tested on: SF-539 CNS
NCI-H322M lung = tested on: NCI-H322M lung
UACC-62 melanoma = tested on: UACC-62 melanoma
CAKI-1 renal = tested on: CAKI-1 renal
MDA-MB-435 melanoma = tested on: MDA-MB-435 melanoma
HCT-116 colon = tested on: HCT-116 colon
ACHN renal = tested on: ACHN renal
SW-620 colon = tested on: SW-620 colon
HCT-15 colon = tested on: HCT-15 colon
HL-60(TB) leukemia = tested on: HL-60(TB) leukemia
NCI-H522 lung = tested on: NCI-H522 lung
SF-295 CNS = tested on: SF-295 CNS

For `Nc1nc2cc(-c3ccc4ncc(C(=O)N5CCOCC5)n4c3)ccc2o1`, the GI50 (A498 renal) was 5.93 µM, the TGI (A498 renal) was > 100 µM and the GI50 (SF-539 CNS) was > 60.9 µM. The TGI (SF-539 CNS) was > 100 µM, the GI50 (NCI-H322M lung) was 6.17 µM and the TGI (NCI-H322M lung) was > 100 µM. For the same molecule, the GI50 (UACC-62 melanoma) was 66.4 µM, the TGI (UACC-62 melanoma) was > 100 µM and the GI50 (CAKI-1 renal) was 6.74 µM. The TGI (CAKI-1 renal) was > 100 µM, the GI50 (MDA-MB-435 melanoma) was 24.2 µM and the TGI (MDA-MB-435 melanoma) was > 100 µM. The GI50 (HCT-116 colon) was 5.23 µM, the TGI (HCT-116 colon) was > 100 µM and the GI50 (ACHN renal) was 8.58 µM. The TGI (ACHN renal) was > 100 µM, the GI50 (SW-620 colon) was 17.7 µM and the TGI (SW-620 colon) was > 91.4 µM. For the same molecule, the GI50 (HCT-15 colon) was 6.21 µM, the TGI (HCT-15 colon) was > 100 µM and the GI50 (HL-60(TB) leukemia) was 5.36 µM. For the same molecule, the TGI (HL-60(TB) leukemia) was > 78 µM, the GI50 (NCI-H522 lung) was 4.05 µM and the TGI (NCI-H522 lung) was > 74.5 µM. For the same molecule, the TGI (SF-295 CNS) was > 95.1 µM.

Source: PubChem BioAssay (NCI)
